The source of these data is patent US8552018B2, “Substituted tricyclic compounds as protein kinase inhibitors” (Arizona Board of Regents on behalf of the University of …, priority 2003, dated 2013).

Common to all, as to format: cell-based
Assay [1] concerns GIST882 cell line. Put plainly: Cancer cell cytotoxicity assay (sulforhodamine B). As to conditions: for IC50: Homo sapiens, 96 h, GIST882, 4 days, read-out: IC50 c-kit GIST882. The procedure: To validate the hypothesis that the designed c-kit/PDGFR tyrosine kinase inhibitors mediate GIST882 cell killing and PDGFR-mediated cell killing of pancreatic cancer cell lines (CFPAC-1, PANC-1 and MIA PaCa-2), an in vitro cytotoxicity assay was performed. The GIST882 cell line used in this study has a c-kit gain-of-function mutation (K642E). […] First the cells were cultured. GIST882 cells were provided by Dr. Jonathan A. Fletcher (Dana-Farber Cancer Institute, Boston, Mass.). PANC-1 and MIAPaCa-2 cells were provided by Dr. Daniel Von Hoff (Arizona Cancer Center, Tucson, Ariz.). […] All the cell lines were incubated in a humidified incubator at 37° C. with 5% CO2 atmosphere.
(§1) After incubation for 4 days at 37° C. in a humidified incubator, the cells were fixed with 10% Trichloroacetic acid solution (Catalog No. 490-10, Sigma). Subsequently, they were labeled with 0.04% Sulforhodamine B (S9012, Sigma) in 1% acetic acid. After multiple washes to remove excess dye, 100 μl of 50 mM Tris solution was added to each well in order to dissolve the dye. The absorbance of each well was read on a plate reader (Wallac Vector^2, PerkinElmer) at the wavelength of 570 nm. Data were expressed as the percentage of survival of control calculated from the absorbance corrected for background absorbance. The surviving percent of cells was determined by dividing the mean absorbance values of the […] by the mean absorbance values of the control and multiplying by 100.

Assay [2] deals with GIST882 cell line. Put plainly: GIST882 cell growth assay (Cell-Titer-Glo). As to conditions: for IC50: Homo sapiens, GIST882, 96 hours. The procedure:
(§2) Briefly, cells are seeded into 96-well, tissue-culture treated, opaque white plates (Thermo Electron, Vantaa, Finland), at between 5000 and 7500 cells per well, depending on the speed of cell proliferation, in 100 μl of appropriate growth medium (determined by the ATCC). Cells are then exposed to the appropriate concentration of drug or an equal amount of DMSO (drug diluent) and allowed to grow in its presence for 96 hours. Following this, 100 μl of Cell-Titer-Glo reagent (Promega, Inc., Madison, Wis.) is added to each well. Plates are then shaken for 2 minutes at room temperature to allow for cell lysis and incubated for 10 minutes to stabilize the luminescent signal. Similar to the Kinase-Glo assay reagent, this reagent contains both luciferase enzyme and its substrate luciferin. Luciferase, activated by ATP in the cell lysate, catalyzes the conversion of luciferin to oxyluciferin, a reaction which produces light. The amount of light produced is proportionate to the amount of ATP in the cell lysate, which is itself proportional to cell number and gives an index of cellular proliferation.
as §2, with “Various compounds of the invention, including (IV-1-3) (also referred to as HPK16), (III-1-3) (also referred to as HPK56), (III-1-4) (also referred to as HPK57), (III-1-5) (also referred to as HPK59), and (II-2-7) (also referred to as HPK61) were tested for activity against GIST tumor cells using the GIST882 cell line. Briefly,” for “Briefly,”

Another assay concerns PANC-1 cells. Put plainly: Cancer cell cytotoxicity assay (sulforhodamine B). As to conditions: Homo sapiens, 96 h; PANC-1, 4 days; read-out: IC50 PDGFR PANC-1. On the procedure:
(§3) To validate the hypothesis that the designed c-kit/PDGFR tyrosine kinase inhibitors mediate GIST882 cell killing and PDGFR-mediated cell killing of pancreatic cancer cell lines (CFPAC-1, PANC-1 and MIA PaCa-2), an in vitro cytotoxicity assay was performed. The GIST882 cell line used in this study has a c-kit gain-of-function mutation (K642E). The assay utilized the Cell Titer 965 Non-Radioactive Cell Proliferation Assay (Promega Corp., Madison, Wis.). First the cells were cultured. GIST882 cells were provided by Dr. Jonathan A. Fletcher (Dana-Farber Cancer Institute, Boston, Mass.). PANC-1 and MIAPaCa-2 cells were provided by Dr. Daniel Von Hoff (Arizona Cancer Center, Tucson, Ariz.). GIST882 cells were cultured in RPMI 1640 medium (Cat #21870-076, Invitrogen Corporation) supplemented with 300 mg/L L-glutamine, 100 unit/ml penicillin, 100 μg/ml streptomycin and 15% fetal bovine serum. PANC-1 and MIAPaCa-2 cells were maintained in RPMI 1640 medium (cat #10-040, Mediatech, Inc.) supplemented with 100 unit/ml penicillin, 100 μg/ml streptomycin and 10% fetal bovine serum. All the cell lines were incubated in a humidified incubator at 37° C. with 5% CO2 atmosphere.
as §1, with “Cells were plated at a density of 2000 to 10000 cells per well, depending on their growth rate, in 0.1 mL medium on day 0 in 96-well Falcon microtiter plates (#3072, Becton-Dickinson Labware, Lincoln Park, N.J.). On day 1, 10 μL of serial dilutions of the individual compounds were added to the plates in replicates of 4. After incubation” for “After incubation”

A further assay has as its system MIAPaCa-2 cells. Put plainly: Cancer cell cytotoxicity assay (sulforhodamine B). As to conditions: Homo sapiens, MIA PaCa-2, 96 h; MIAPaCa-2, 4 days; read-out: IC50 PDGFR MIAPaCa. The procedure:
as §3
as §1, with “Cells were plated at a density of 2000 to 10000 cells per well, depending on their growth rate, in 0.1 mL medium on day 0 in 96-well Falcon microtiter plates (#3072, Becton-Dickinson Labware, Lincoln Park, N.J.). On day 1, 10 μL of serial dilutions of the individual compounds were added to the plates in replicates of 4. After incubation” for “After incubation”

Molecules are shown by their SMILES.

As to `COc1cc2ncnc(N3CCN(C(=S)Nc4ccc(S(=O)(=O)Nc5ncccn5)cc4)CC3)c2cc1OC` [HPK16, 4-(6,7-Dimethoxy-quinazolin-4-yl)-piperazine-1-carbothioic acid [4-(pyrimidin-2-ylsulfamoly)-phenyl]-amide], the IC50 – broadly, the concentration needed to halve the response being measured – with GIST882 cell line [1] was 50 µM; with GIST882 cell line [2], 50 µM; in the assay on PANC-1 cells, above 50 µM; in the assay on MIAPaCa-2 cells, above 50 µM.
Turning to `S=C(NCc1ccc2c(c1)OCO2)N1CCN(c2ncnc3c2oc2ccccc23)CC1` [HPK56, 4-Benzo[4,5]furo[3,2-d]pyrimidin-4-yl-piperazine-1-carbothioic acid (benzo[1,3]dioxol-5-ylmethyl)-amide], the “cells alive at day 4” value in the assay on GIST882 cell line [1] (GIST882, day 4) is 5%. The IC50 with GIST882 cell line [1] was determined as 1.6 µM; in the assay with GIST882 cell line [2], 1.6 µM; with PANC-1 cells, 3 µM; with MIAPaCa-2 cells it was 2.1 µM. Besides, in the assay on GIST882 cell line [2] (FIG. 29, 96 hours), the “inhibitory activity in GIST882 cell line (in words)” value is listed as “highest inhibitory activity”.
In the case of `COc1cc2[nH]c3ncnc(N4CCN(C(=S)Nc5ccc(S(=O)(=O)Nc6ncccn6)cc5)CC4)c3c2cc1OC` [HPK62, 4-(6,7-Dimethoxy-9H-1,3,9-triaza-fluoren-4-yl)-piperazine-1-carbothioic acid [4-(pyrimidin-2-ylsulfamoyl)-phenyl]-amide], the IC50 in the assay with GIST882 cell line [1] is 28 µM; in the assay on GIST882 cell line [2] it was 28 µM; with PANC-1 cells, above 50 µM; with MIAPaCa-2 cells, above 50 µM.
